Legend:
[1] = system: M1 central muscarinic cholinergic receptors; assay: Antagonism of rotations induced by intrastriatal injection of pirenzepine in mice; assay type: in vivo, mice (Swiss, CD 1); conditions: for Pirenzepine antagonism ED50 i.p.: 15 minutes before intrastriatal pirenzepine 1 μg; for Pirenzepine antagonism ED50 p.o.: 30 minutes before intrastriatal pirenzepine 1 μg
Procedure: Pirenzepine (PZ) is a specific antagonist of the M1 central muscarinic cholinergic receptors. The intrastriatal injection of PZ into mice induces rotatory behavoir. The antagonism of this behavoir by the products according to the invention was studied.
The products according to the invention are administered either intraperitoneally (i.p.) or orally (p.o.) after solubilization in distilled water or suspension in a 5% solution of gum arabic. The control animals receive the pure solvent under the same conditions.
The animals used are female mice (Swiss, CD 1, Charles River, France) with a body weight of between 25 and 30 grams.
The pirenzepine is dissolved in a phosphate buffer and the pH of the solution is 6.
The test products or their solvents are administered in a volume of 0.4 ml per 20 g of body weight, either by i.p. injection or orally via an esophageal tube.
The number of contralateral rotations (rotations in the opposite direction to the side injected) was counted for three 2-minute periods after injection of the pirenzepine: 2nd to 4th, 8th to 10th and 13th to 15th minutes. Each treatment consists of 3 to 4 doses and 10 animals per dose. The total number of rotations and the percentage antagonism with respect to the control group are calculated for each treatment.

[2] = molecular target: T1, M1 -type muscarinic cholinergic receptor (Rattus norvegicus, UniProt P08482); assay: biochemical; assay type: binding; conditions: for IC50: rat hippocampus homogenate, 3H-PZ 1 nM, 2 hours at 4° C., pH 7.40, read-out: IC50 3H-PZ (M1); for ratio R of the IC50 values for the M1 and M2 receptors: selectivity, values correspond to IC50 M2 / IC50 M1
T1 sequence (P08482 1-460): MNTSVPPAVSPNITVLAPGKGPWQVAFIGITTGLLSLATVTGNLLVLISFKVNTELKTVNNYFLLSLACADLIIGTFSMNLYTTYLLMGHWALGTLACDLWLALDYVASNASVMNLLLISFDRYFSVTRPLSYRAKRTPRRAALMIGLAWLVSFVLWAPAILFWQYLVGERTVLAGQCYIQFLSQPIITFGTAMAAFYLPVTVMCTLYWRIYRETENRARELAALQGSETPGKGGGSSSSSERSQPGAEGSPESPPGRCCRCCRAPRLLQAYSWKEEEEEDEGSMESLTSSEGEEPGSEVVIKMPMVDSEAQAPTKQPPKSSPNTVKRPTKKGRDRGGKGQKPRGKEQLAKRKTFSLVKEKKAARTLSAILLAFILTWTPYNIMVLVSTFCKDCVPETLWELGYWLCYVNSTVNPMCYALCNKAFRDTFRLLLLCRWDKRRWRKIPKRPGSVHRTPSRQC
Procedure: The interaction of the molecules with the M1 -type muscarinic receptors was studied by in vitro measurement, on a rat hippocampus homogenate, of the displacement of tritiated pirenzepine from its specific binding sites. Aliquots (10 μl) of a 5% (w/v) rat hippocampus homogenate in an Na2 HPO4 buffer (50 mM, pH 7.40) are incubated for 2 hours at 4° C. in the presence of ^3 H-PZ (76 Ci/mmol; final concentration 1 nM) and increasing concentrations of the test product. The final volume is 2 ml. The reaction is stopped by centrifugation for 10 minutes at 50,000×g. After decantation and washing of the residues, the bound radioactivity is counted by liquid scintillation. The non-specific binding is determined in the presence of 10 μM atropine sulfate.

[3] = molecular target: T2, M2 -type muscarinic cholinergic receptor (Cavia porcellus, UniProt H0VRN8); assay: Affinity for the M2-type muscarinic cholinergic receptor, displacement of tritiated N-methylscopolamine (3H-NMS) on smooth guinea-pig ileum muscle homogenate; assay type: binding; conditions: guinea-pig ileum smooth muscle homogenate, 3H-NMS 0.3 nM, 20 minutes at 30° C., pH 7.5; read-out: IC50 3H-NMS (M2)
T2 construct: on a smooth guinea-pig ileum muscle homogenate; from tissue; host or cells: guinea-pig ileum smooth muscle homogenate
T2 sequence (H0VRN8 1-466): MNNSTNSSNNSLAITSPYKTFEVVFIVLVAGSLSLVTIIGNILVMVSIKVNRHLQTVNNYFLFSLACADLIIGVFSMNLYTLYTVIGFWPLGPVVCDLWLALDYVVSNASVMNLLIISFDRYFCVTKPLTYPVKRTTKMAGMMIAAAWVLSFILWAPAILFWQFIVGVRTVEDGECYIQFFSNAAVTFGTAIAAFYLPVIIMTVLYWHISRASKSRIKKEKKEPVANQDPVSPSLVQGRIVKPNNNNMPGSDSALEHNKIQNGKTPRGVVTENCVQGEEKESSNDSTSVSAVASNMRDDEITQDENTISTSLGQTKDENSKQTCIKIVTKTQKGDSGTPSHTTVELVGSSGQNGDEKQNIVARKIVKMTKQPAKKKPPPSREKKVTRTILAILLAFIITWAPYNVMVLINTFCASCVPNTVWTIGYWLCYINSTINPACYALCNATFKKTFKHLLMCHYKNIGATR
Procedure: The M1 -type receptors are concentrated in certain regions of the brain, such as the hippocampus, the cerebral cortex and the striatum, and also in the sympathetic ganglia. These binding sites can be selectively labeled with tritiated pirenzepine (^3 H-PZ). The M2 -type receptors predominate in the heart and the ileum and can be labeled with tritiated N-methyl-scopolamine (^3 H-NMS). The selectivity of the products of the invention with respect to the M1 and M2 sites was determined by studying their in vitro interaction with ^3 H-PZ and ^3 H-NMS firmly bound with a high affinity to rat hippocampus membranes and smooth guinea-pig ileum muscle, respectively.
The interaction with the M2 -type muscarinic receptors was studied by in vitro measurement, on a smooth guinea-pig ileum muscle homogenate, of the displacement of tritiated N-methylscopolamine from its specific binding sites. […] The final volume is 1 ml. The reaction is stopped by centrifugation for 5 minutes at 15,000×g. The non-specific binding is determined in the presence of 10 mM atropine sulfate.
The IC50 for ^3 H-PZ displacement represents the affinity for the M1 receptor; the IC50 for ^3 H-NMS displacement represents the affinity for the M2 receptor.

Compound	Pirenzepine antagonism ED50 i.p. [1] [mg/kg]	IC50 [2] [µM]	ratio R of the IC50 values for the M1 and M2 receptors [2]	IC50 [3] [µM]	Pirenzepine antagonism ED50 p.o. [1] [mg/kg]
c1ccc(-c2cnc(NCCN3CCOCC3)s2)cc1 [SR 44285 A]	3	–	–	–	–
c1ccc2c(c1)CCCc1sc(NCCCN3CCOCC3)nc1-2 [SR 44392 A]	3	–	–	–	–
CCN(CC)CCNc1nc(C)cs1 [SR 44422 A]	–	8.1	12	100	–
CCN(CC)CCCNc1nc(-c2ccccc2)c(C)s1 [SR 44434 A]	–	1.5	46	70	–
CCN(CC)CCNc1nc(C)c(-c2ccccc2)s1 [SR 44436 A]	–	1.7	29	50	–
CCN(CC)CCNc1nc(-c2ccccc2)c(-c2ccccc2)s1 [SR 44437 A]	–	0.43	7	3	–
c1ccc(-c2cnc(NCCN3CCCC3)s2)cc1 [SR 44438 A]	–	1	60	60	–
CCCCN(CCCC)CCNc1nc(-c2ccc(F)cc2)cs1 [SR 44451 A]	–	6	13	80	–
COc1ccccc1-c1csc(NCCCN(C)C)n1 [SR 44465 A]	–	2.6	15	40	–
CCN(CC)CCNc1nc(C23CC4CC(CC(C4)C2)C3)cs1 [SR 44468 A]	–	1.2	18	22	–
CCN(CC)CCNc1nc(-c2ccc([N+](=O)[O-])cc2)cs1 [SR 44469 A]	–	2.6	23	60	–
Cc1nc(NCCN2CCCC2)sc1-c1ccccc1 [SR 44488 A]	–	1.7	20	34	–
Cc1nc(NCCN(C(C)C)C(C)C)sc1-c1ccccc1 [SR 44489 A]	–	0.3	6	2	–
c1ccc(-c2cnc(NCCN3CCCCC3)s2)cc1 [SR 44490 A]	–	1.5	16	25	–
CC(C)N(CCNc1ncc(-c2ccccc2)s1)C(C)C [SR 44491 A]	–	0.8	10	8.5	–
CCCCN(CCCC)CCNc1ncc(-c2ccccc2)s1 [SR 44492 A]	–	3.6	8	28	–
CCN(CC)CCCNc1nc(Cc2ccccc2)c(-c2ccccc2)s1 [SR 44515 A]	–	0.2	17	3.4	–
c1ccc2cc(-c3csc(NCCN4CCCCC4)n3)ccc2c1 [SR 44516 A]	–	3.4	22	75	–
CN(C)CCCNc1nc(C2CCCCC2)cs1 [SR 44574 A]	–	0.2	120	24	–
c1csc(-c2csc(NCCN3CCOCC3)n2)c1 [SR 44575 A]	–	7	> 14	> 100	–

Compound	Pirenzepine antagonism ED50 i.p. [1] [mg/kg]	IC50 [2] [µM]	ratio R of the IC50 values for the M1 and M2 receptors [2]	IC50 [3] [µM]	Pirenzepine antagonism ED50 p.o. [1] [mg/kg]
Cc1sc(NCCCN(C)C)nc1-c1ccccc1 [SR 44769 A]	–	2	15	30	–
CN1CCCC1CCNc1nc(-c2ccc(F)cc2)cs1 (stereo not shown) [SR 44786 A]	–	0.6	67	40	–
CN(C)CCCNc1nc(-c2cccc([N+](=O)[O-])c2)cs1 [SR 44791 A]	–	5	8	40	–
Cc1cc(C)c(-c2csc(NCc3ccccn3)n2)c(C)c1 [SR 44813 A]	–	6	> 17	> 100	–
Cc1cc(C)c(-c2csc(NCCC3CCCN3C)n2)c(C)c1 (stereo not shown) [SR 44814 A]	–	1.4	7	–	0.2
Cc1ccc(-c2csc(NCCCN(C)C)n2)cc1 [SR 44832 A]	–	2.4	> 42	> 100	–
Fc1ccc(-c2csc(NCc3ccncc3)n2)cc1 [SR 44840 A]	–	0.6	> 167	> 100	–
Cc1cc(C)c(-c2csc(NCc3ccncc3)n2)c(C)c1 [SR 44864 A]	–	0.28	> 360	> 100	–
NCCCNc1nc(-c2ccc(F)cc2)cs1 [SR 44886 A, 2-[(3-Aminopropyl)amino]-4-(4-fluorophenyl)thiazole]	–	6.3	11	70	–
Cc1cc(C)c(-c2csc(NCCCN(C(C)C)C(C)C)n2)c(C)c1 [SR 44887 A]	–	–	–	–	0.3
c1ccc(-c2nc(NCc3cccnc3)sc2-c2ccccc2)cc1 [SR 44904 A]	–	6	> 17	> 100	–
Cc1cc(C)c(-c2csc(NCCc3ccccn3)n2)c(C)c1 [SR 44905 A]	–	2.4	25	60	–
c1ccc(-c2nc(NCCc3ccccn3)sc2-c2ccccc2)cc1 [SR 44906 A]	–	2.4	> 42	> 100	–
Cc1cc(C)c(-c2csc(NCCN(C(C)C)C(C)C)n2)c(C)c1 [SR 44908 A]	–	0.13	31	4	–
CC(C)N(CCCNc1nc(-c2ccc(F)cc2F)cs1)C(C)C [SR 44916 A]	–	0.13	38	5	–
Cc1cc(C)c(-c2csc(NCCCN)n2)c(C)c1 [SR 44949 A, 2-[(3-Aminopropyl)amino]-4-(2,4,6-trimethylphenyl)thiazole]	–	–	–	–	10
CCc1nc(NCCCN(CC)CC)sc1-c1ccccc1 [SR 44963 A]	–	0.12	50	6	–
c1ccc(-c2cnc(NCCc3ccncc3)s2)cc1 [SR 44966 A]	–	4.5	22	100	–
CN(C)CCCNc1ncc(-c2ccccc2)s1 [SR 44967 A]	–	1.8	22	40	–
CC(C)(c1ccccc1)c1csc(NCc2cccnc2)n1 [SR 45106 A]	–	3	> 33	> 100	–
